Literature values in paper PMC10855781 (International Journal of Molecular Sciences, 2024).
Read-outs that look alike come from different tables or passages of the source.

How the values were obtained:
[1] = test system: human colorectal adenocarcinoma (HT-29); details: Table 2; ref [75]
Text: Table 2 Comparative study of cytotoxic effects and cardiotoxicity elicited by selected GnRH-based anthracycline conjugates. || Table 3 In vivo tumor growth inhibition of a few relevant Dau-GnRH-III conjugates. | column: Cytostatic Effect (IC50: μM) on HT-29 cells

[2] = test system: PC-3 human prostatic adenocarcinoma; parameters: method as in PMID 36834815; details: s.c. PC-3; i.p. 10 mg Dau-content/kg every fifth day from day 9, five treatments; day 33; Dau 1 mg/kg, terminated day 26; ref [84]
Text: This 14-mer peptide (Glp-[…]NH2), first discovered in the skin of the frog Bombina bombina, is associated with the gastrin-releasing peptide (GRP) as a mammalian counterpart. The bombesin receptor family comprises neuromedin receptor B (NMB-R, or BB1), gastrin-releasing peptide receptor (GRP-R, or BB2) and bombesin receptor subtype 3 (BRS-3, or BB3). Among them, GRP-R has been the most investig ...

mice = test system: mice
Text: The most widely studied oxime-linked daunomycin–peptide conjugates were GnRH-III-based derivatives. GnRH-III (<[…]-NH2, where <E is pyroglutamic acid) was first isolated from sea lamprey and has a very low-level hormonal effect in mammals, but binds to both the human GnRH receptors (GnRH-IR and GnRH-IIR). […] Nevertheless, the results of the in vivo acute and chronic toxicity measureme ...

PANC-1 tumor = details: ref [110]
Method: The in vivo tumor growth inhibitory effect of the conjugate and free Dau was investigated on s.c.-developed PANC-1 tumor-bearing SCID female mice. The free drug was applied once a week at a maximum tolerated dose of 1 mg/kg body weight (three treatments), while the conjugate was administered, on average, three times per a week either at a 2 mg/kg or 10 mg/kg dose, calculated as per the Dau content (eighteen treatments altogether). The first treatment was given on day 10 after tumor inoculation. After the third treatment with free Dau, the animals lost 20% of their weight; therefore, the mice i ...

SMILES: COc1cccc2c1C(=O)c1c(O)c3c(c(O)c1C2=O)C[C@@](O)(C(C)=O)C[C@@H]3O[C@H]1C[C@H](N)[C@H](O)[C@H](C)O1 [Dau, daunomycin]
- IC50 [1]: 300 ± 200 nM
- tumor volume inhibition [2]: without showing a significant reduction
- dose with remarkable toxicity (mice; healthy mice): > 2 mg/kg
- dose with remarkable toxicity (mice; immunodeficient mice): > 1 mg/kg
- decrease in liver weight (PANC-1 tumor; Dau 1 mg/kg once a week, three treatments): 29.1%
- body weight loss (PANC-1 tumor; after third treatment, 1 mg/kg once a week, sacrificed day 28): 20%
